Measurements reported in US9434743B2, “Indazole derivatives” (TAKEDA PHARMACEUTICAL COMPANY LIMITED, priority 2012, dated 2016).

Assays:
human MetAP2 enzyme [1] = molecular target: T1, human MetAP2 enzyme (Homo sapiens, UniProt P50579); test: MetAP2 enzyme assay, enzyme complexed with cobalt ions; conditions: MetAP2 Co pIC50, MetAP2 enzyme complexed with cobalt ions; Met-AMC substrate at Km
Procedure: DNA encoding the full-length sequence of human MetAP2 enzyme is amplified by PCR and cloned into a pFastBac expression vector (Invitrogen). Recombinant baculovirus incorporating the MetAP2 construct is generated by transposition using the Bac-to-Bac system (Invitrogen). The expression of recombinant protein is carried out by infection of Spodoptera frugiperda Sf9 cells (Invitrogen) in 5 L Wave Bioreactors (Wave Biotech). Recombinant protein is isolated from cellular extracts by binding to an SP Hitrap Fast Flow or SP Sepharose (Sigma) column, and the protein is eluted using a NaCl gradient. Partially purified extracts of MetAP2 are further purified by an AKTA FPLC over a Superdex-200 column (GE). The purity of MetAP2 protein is determined on denaturing SDS-PAGE gel.
The results for each well are expressed as percent inhibition and calculated using the equation:

human MetAP2 enzyme [2] = molecular target: T1, human MetAP2 enzyme; test: MetAP2 enzyme assay, enzyme complexed with manganese ions; conditions: MetAP2 Mn pIC50, MetAP2 enzyme complexed with manganese ions; Met-AMC substrate at Km

T1 sequence (P50579 whole entry): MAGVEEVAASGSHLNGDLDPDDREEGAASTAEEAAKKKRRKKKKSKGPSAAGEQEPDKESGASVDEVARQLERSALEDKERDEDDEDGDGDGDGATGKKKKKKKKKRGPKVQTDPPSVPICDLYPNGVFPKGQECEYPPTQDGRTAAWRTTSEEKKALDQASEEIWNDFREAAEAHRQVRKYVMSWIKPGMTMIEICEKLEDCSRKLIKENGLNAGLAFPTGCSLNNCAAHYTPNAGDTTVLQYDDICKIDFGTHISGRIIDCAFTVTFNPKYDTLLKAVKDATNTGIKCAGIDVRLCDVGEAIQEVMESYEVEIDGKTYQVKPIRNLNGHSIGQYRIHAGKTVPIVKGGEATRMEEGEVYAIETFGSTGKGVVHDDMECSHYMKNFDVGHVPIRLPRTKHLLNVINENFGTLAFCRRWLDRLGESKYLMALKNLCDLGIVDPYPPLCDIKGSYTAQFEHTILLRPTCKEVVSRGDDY

SMILES	IC50 (human MetAP2 enzyme [1]) [nM]	IC50 (human MetAP2 enzyme [2]) [nM]
O=C(NCC(F)F)c1c[nH]c(=O)c(-c2cc(C(F)(F)F)cc3[nH]ncc23)c1 [Example 338, N-(2,2-difluoroethyl)-6-oxo-5-(6-(trifluoromethyl)-1H-indazol-4-yl)-1,6-dihydropyridine-3-carboxamide]	398	10
CN(C)C(=O)c1ccccc1-c1cc(C(F)(F)F)cc2[nH]ncc12 [Example 47, N,N-dimethyl-2-(6-(trifluoromethyl)-1H-indazol-4-yl)benzamide]	501	50.1
CCn1cc(-c2cc(C(F)(F)F)cc3[nH]ncc23)c(C)n1 [Example 171, 4-(1-ethyl-3-methyl-1H-pyrazol-4-yl)-6-(trifluoromethyl)-1H-indazole]	63.1	5.01
O=C(Cn1cncn1)NCc1ccccc1-c1cc(C(F)(F)F)cc2[nH]ncc12 [Example 202, 2-(1H-1,2,4-triazol-1-yl)-N-(2-(6-(trifluoromethyl)-1H-indazol-4-yl)benzyl)acetamide]	501	25.1
C[C@H](O)CNC(=O)c1c[nH]c(=O)c(-c2cc(C(F)(F)F)cc3[nH]ncc23)c1 [Example 335, (S)—N-(2-hydroxypropyl)-6-oxo-5-(6-(trifluoromethyl)-1H-indazol-4-yl)-1,6-dihydropyridine-3-carboxamide]	631	15.8
NC(=O)Cn1cc(-c2cc(C(F)(F)F)cc3[nH]ncc23)cn1 [Example 264, 2-(4-(6-(trifluoromethyl)-1H-indazol-4-yl)-1H-pyrazol-1-yl)acetamide]	100	6.31
CN1CCN(C(=O)c2cnc(N)c(-c3cc(C(F)(F)F)cc4[nH]ncc34)c2)CC1 [Example 221, (6-amino-5-(6-(trifluoromethyl)-1H-indazol-4-yl)pyridin-3-yl)(4-methylpiperazin-1-yl)methanone]	63.1	10
Cc1nn(CC(N)=O)cc1-c1cc(C(F)(F)F)cc2[nH]ncc12 [Example 274, 2-(3-methyl-4-(6-(trifluoromethyl)-1H-indazol-4-yl)-1H-pyrazol-1-yl)acetamide]	63.1	3.98
N#Cc1cnc2c(-c3cc(C(F)(F)F)cc4[nH]ncc34)cnn2c1N [Example 159, 7-amino-3-(6-(trifluoromethyl)-1H-indazol-4-yl)pyrazolo[1,5-a]pyrimidine-6-carbonitrile]	1580	158
Cc1nc(N2CCN(C)CC2)ccc1-c1cc(C(F)(F)F)cc2[nH]ncc12 [Example 400, 4-(2-methyl-6-(4-methylpiperazin-1-yl)pyridin-3-yl)-6-(trifluoromethyl)-1H-indazole]	12.6	7.94
Cc1nn(CC2(C)COC2)c(C)c1-c1cc(C(F)(F)F)cc2[nH]ncc12 [Example 380, 4-(3,5-dimethyl-1-((3-methyloxetan-3-yl)methyl)-1H-pyrazol-4-yl)-6-(trifluoromethyl)-1H-indazole]	398	25.1
NC(=O)c1cc(F)ccc1-c1cc(C(F)(F)F)cc2[nH]ncc12 [Example 203, 5-fluoro-2-(6-(trifluoromethyl)-1H-indazol-4-yl)benzamide]	3980	79.4
Cn1cc(C(=O)NCC(F)F)cc(-c2cc(C(F)(F)F)cc3[nH]ncc23)c1=O [Example 355, N-(2,2-difluoroethyl)-1-methyl-6-oxo-5-(6-(trifluoromethyl)-1H-indazol-4-yl)-1,6-dihydropyridine-3-carboxamide]	316	5.01
NC(=O)c1cc(-c2cc(C(F)(F)F)cc3[nH]ncc23)ccn1 [Example 283, 4-(6-(trifluoromethyl)-1H-indazol-4-yl)picolinamide]	63.1	3.98
CNC(=O)Cn1nc(C)c(-c2cc(C(F)(F)F)cc3[nH]ncc23)c1C [Example 367, 2-(3,5-dimethyl-4-(6-(trifluoromethyl)-1H-indazol-4-yl)-1H-pyrazol-1-yl)-N-methylacetamide]	50.1	15.8
FC(F)(F)c1cc(-c2c[nH]c3ncncc23)c2cn[nH]c2c1 [Example 155, 5-(6-(trifluoromethyl)-1H-indazol-4-yl)-7H-pyrrolo[2,3-d]pyrimidine]	63.1	15.8
COc1cc(C(N)=O)ccc1-c1cc(C(F)(F)F)cc2[nH]ncc12 [Example 306, 3-methoxy-4-(6-(trifluoromethyl)-1H-indazol-4-yl)benzamide]	15.8	6.31
Nc1ncc(Cl)cc1-c1cc(C(F)(F)F)cc2[nH]ncc12 [Example 137, 5-chloro-3-(6-(trifluoromethyl)-1H-indazol-4-yl)pyridin-2-amine]	158	10
Cn1cc(-c2cc(C(F)(F)F)cc3[nH]ncc23)c(=O)n(CCO)c1=O [Example 303, 3-(2-hydroxyethyl)-1-methyl-5-(6-(trifluoromethyl)-1H-indazol-4-yl)pyrimidine-2,4(1H,3H)-dione]	1000	12.6

SMILES	IC50 (human MetAP2 enzyme [1]) [nM]	IC50 (human MetAP2 enzyme [2]) [nM]
O=S(=O)(c1ccc(-c2cc(C(F)(F)F)cc3[nH]ncc23)cc1)N1CCOCC1 [Example 225, 4-(4-(6-(trifluoromethyl)-1H-indazol-4-yl)phenylsulfonyl)morpholine]	100	7.94
Cc1nc2[nH]cnc2cc1-c1cc(C(F)(F)F)cc2[nH]ncc12 [Example 195, 5-methyl-6-(6-(trifluoromethyl)-1H-indazol-4-yl)-3H-imidazo[4,5-b]pyridine]	25.1	6.31
Cc1nn(Cc2cnn(C)c2)c(CO)c1-c1cc(C(F)(F)F)cc2[nH]ncc12 [Example 410, (3-methyl-1-((1-methyl-1H-pyrazol-4-yl)methyl)-4-(6-(trifluoromethyl)-1H-indazol-4-yl)-1H-pyrazol-5-yl)methanol]	15.8	6.31
COc1ncc(N)cc1-c1cc(C(F)(F)F)cc2[nH]ncc12 [Example 187, 6-methoxy-5-(6-(trifluoromethyl)-1H-indazol-4-yl)pyridin-3-amine]	79.4	7.94
FC(F)(F)c1cc(-c2csc(N3CCOCC3)n2)c2cn[nH]c2c1 [Example 60, 4-(4-(6-(trifluoromethyl)-1H-indazol-4-yl)thiazol-2-yl)morpholine]	1000	50.1
Cc1c(C(=O)N2CCN(C)CC2)cc(-c2cc(C(F)(F)F)cc3[nH]ncc23)c(=O)n1C [Example 401, 1,6-dimethyl-5-(4-methylpiperazine-1-carbonyl)-3-(6-(trifluoromethyl)-1H-indazol-4-yl)pyridin-2(1H)-one]	200	6.31
NS(=O)(=O)c1ccc(-c2cc(C(F)(F)F)cc3[nH]ncc23)cc1Cl [Example 343, 2-chloro-4-(6-(trifluoromethyl)-1H-indazol-4-yl)benzenesulfonamide]	100	6.31
COc1ccc(C(=O)N2CC(O)C2)cc1-c1cc(C(F)(F)F)cc2[nH]ncc12 [Example 328, (3-hydroxyazetidin-1-yl)(4-methoxy-3-(6-(trifluoromethyl)-1H-indazol-4-yl)phenyl)methanone]	12.6	12.6
Cc1cc(=O)[nH]cc1-c1cc(C(F)(F)F)cc2[nH]ncc12 [Example 390, 4-methyl-5-(6-(trifluoromethyl)-1H-indazol-4-yl)pyridin-2(1H)-one]	39.8	6.31
CNC(=O)c1ccc(F)c(-c2cc(C(F)(F)F)cc3[nH]ncc23)c1 [Example 114, 4-fluoro-N-methyl-3-(6-(trifluoromethyl)-1H-indazol-4-yl)benzamide]	50.1	6.31
Cc1c(-c2cc(C(F)(F)F)cc3[nH]ncc23)ccc(=O)n1C [Example 402, 1,6-dimethyl-5-(6-(trifluoromethyl)-1H-indazol-4-yl)pyridin-2(1H)-one]	39.8	3.16
NC(=O)c1cc(-c2cc(C(F)(F)F)cc3[nH]ncc23)cnc1N [Example 233, 2-amino-5-(6-(trifluoromethyl)-1H-indazol-4-yl)nicotinamide]	100	7.94
COc1ccn2c(-c3cc(C(F)(F)F)cc4[nH]ncc34)cnc2c1C#N [Example 160, 7-methoxy-3-(6-(trifluoromethyl)-1H-indazol-4-yl)imidazo[1,2-a]pyridine-8-carbonitrile]	79.4	39.8
COc1ccc(CC(N)=O)cc1-c1cc(C(F)(F)F)cc2[nH]ncc12 [Example 350, 2-(4-methoxy-3-(6-(trifluoromethyl)-1H-indazol-4-yl)phenyl)acetamide]	31.6	7.94
CNC(=O)c1ccc(OC)c(-c2cc(C(F)(F)F)cc3[nH]ncc23)c1 [Example 181, 4-methoxy-N-methyl-3-(6-(trifluoromethyl)-1H-indazol-4-yl)benzamide]	15.8	5.01
O=C1Cc2c(cccc2-c2cc(C(F)(F)F)cc3[nH]ncc23)N1 [Example 129, 4-(6-(trifluoromethyl)-1H-indazol-4-yl)indolin-2-one]	10	3.98
Cn1cc(-c2cc(C(F)(F)F)cc3[nH]ncc23)c(=O)n(CC#N)c1=O [Example 312, 2-(3-methyl-2,6-dioxo-5-(6-(trifluoromethyl)-1H-indazol-4-yl)-2,3-dihydropyrimidin-1(6H)-yl)acetonitrile]	1000	25.1
Cc1nnc(-c2cccc(-c3cc(C(F)(F)F)cc4[nH]ncc34)c2)o1 [Example 37, 2-methyl-5-(3-(6-(trifluoromethyl)-1H-indazol-4-yl)phenyl)-1,3,4-oxadiazole]	39.8	7.94
COC(=O)c1ccc(OC)c(-c2cc(C(F)(F)F)cc3[nH]ncc23)c1 [Example 263, methyl 4-methoxy-3-(6-(trifluoromethyl)-1H-indazol-4-yl)benzoate]	20	15.8
